Read-outs that look alike come from different tables or passages of the source.
Tested on: Ips engravers beetles
Assay type: in vivo
Method: Study Sites: Two 20-year-old, recently thinned loblolly pine plantations were selected in Texas. Trees in one plantation were injected for use in a bolt study (Trial 1). Trees in ½ acre section of the second plantation were injected as part of a single-tree protection study (Trial 2). A staging area also was set up in the second plantation where bolts from the first plantation were exposed to bark beetles and wood borers.
Population Monitoring: A clear panel of acetate (10 cm wide by 25 cm long) was attached to the center of each bolt after deployment of bolts or 2 m high on standing trees after deployment of pheromone baits to monitor arrival of bark beetles. The top surface of each panel was coated entirely with Stikem Special® trapping compound (Michel and Pelton, Emeryville, Calif.). The traps were left in place for two weeks.
After 1 (May 24), 3 (July 19) and 5 (September) months post-injection, 5 trees of each treatment were felled and two 1.5 m long bolts were removed from the 3 m and 8 m heights of the bole. Because southern pine beetle (SPB) populations were extremely low in east Texas during the study year, Ips engravers were used as alternative bark beetles for this study. The bolts were transported to a 20-year-old loblolly plantation that was recently thinned and contained fresh slash material. Each bolt was placed about 1 m apart on discarded, dry pine bolts to maximize surface area available for colonization as well as to discourage predation by ground and litter-inhabiting organisms. To facilitate timely bark beetle colonization, packets of bark beetle pheromones (racemic ipsdienol +lanerione combination, ipsenol or cis-verbenol; Phero Tech, Inc., Delta, BC, Canada) were attached separately to three 1 m stakes evenly spaced in the study area. Racemic ipsdienol and cis-verbenol were used with the second series of bolts deployed in July. The packets were removed after 2 weeks when signs of attacks (boring dust) were observed on most test bolts, signaling that naturally-produced pheromones were present.
Treatment Evaluation: Trial 1. The first and second series of bolts were retrieved 2.5 and 3 weeks, respectively, after deployment, after observing many cerambycid attacks on most of the bolts. In the laboratory, two 10×50 cm strips (total=1000 cm^2) of bark were removed from each bolt. Several measurements were made relating to construction of nuptial chambers and egg galleries and development of brood: • 1. Number of unsuccessful attacks—penetration to phloem, but no egg galleries. • 2. Number of successful attacks—construction of nuptial chamber and at least one egg gallery extending from it. • 3. Number and lengths of egg galleries with brood galleries radiating from them. • 4. Number and lengths of egg galleries without brood galleries. • 5. Cerambycid activity, estimated by overlaying a 100 cm^2 grid over a portion of each bark strip and counting the number of squares overlapping area where cerambycids had fed.
Treatment efficacy was determined by comparing Ips beetle attacks and egg gallery length and cerambycid feeding on treated and untreated bolts. The data were transformed by log10(x+1) to satisfy criteria for normality and homoscedasticity (Zar 1984) and analyzed by GLM and the Fishers Protected LSD test using the Statview statistical program.

[1] = 1 month post-injection (May), bolt height 3 m
[2] = 1 month post-injection (May), bolt height 8 m
[3] = 3 months post-injection (July), bolt height 3 m
[4] = 3 months post-injection (July), bolt height 8 m
[5] = 3 months post-injection, bolt height 3 m
[6] = 3 months post-injection, bolt height 8 m
[7] = 5 months post-injection (Sept.), bolt height 3 m
[8] = 5 months post-injection (Sept.), bolt height 8 m

N#Cc1nn(-c2c(Cl)cc(C(F)(F)F)cc2Cl)c(N)c1[S+]([O-])C(F)(F)F (stereo not drawn) [Fip, 5-amino-3-cyano-1-(2,6-dichloro-4-trifluoromethylphenyl)-4-trifluoromethylsulfinylpyrazole]
Length of Egg Galleries Total [1]: 135.0 | Length of Egg Galleries With Brood [1]: 70.6 cm | Length of Egg Galleries With Brood % of Total [1]: 52.3% | Length of Egg Galleries Without Brood [1]: 64.4 cm | Length of Egg Galleries Without Brood % of Total [1]: 47.7% | Mean # of Ips caught/trap [1]: 4.0 | Number of Egg Galleries Total [1]: 33.6 | Number of Egg Galleries With Brood % of Total [1]: 29.8% | Number of Egg Galleries With Brood No. [1]: 10.0 | Number of Egg Galleries Without Brood % of Total [1]: 70.2% | Number of Egg Galleries Without Brood No. [1]: 23.6 | Nuptial Chambers Total [1]: 21.0 | Nuptial Chambers With Egg Galleries % of Total [1]: 51.4% | Nuptial Chambers With Egg Galleries No. [1]: 10.8 | Nuptial Chambers Without Egg Galleries No. [1]: 10.2 | Length of Egg Galleries Total [2]: 332.8 | Length of Egg Galleries With Brood [2]: 183.2 cm | Length of Egg Galleries With Brood % of Total [2]: 55.0% | Length of Egg Galleries Without Brood [2]: 149.6 cm | Length of Egg Galleries Without Brood % of Total [2]: 45.0% | Mean # of Ips caught/trap [2]: 3.6 | Number of Egg Galleries Total [2]: 73.0 | Number of Egg Galleries With Brood % of Total [2]: 36.7% | Number of Egg Galleries With Brood No. [2]: 26.8 | Number of Egg Galleries Without Brood % of Total [2]: 63.3% | Number of Egg Galleries Without Brood No. [2]: 46.2 | Nuptial Chambers Total [2]: 25.8 | Nuptial Chambers With Egg Galleries % of Total [2]: 89.9% | Nuptial Chambers With Egg Galleries No. [2]: 23.2 | Nuptial Chambers Without Egg Galleries % of Total [2]: 10.1% | Nuptial Chambers Without Egg Galleries No. [2]: 2.6 | Mean # of Ips caught/trap [3]: 4.8 | Nuptial Chambers Total [3]: 12.6 | Nuptial Chambers With Egg Galleries % of Total [3]: 22.2% | Nuptial Chambers With Egg Galleries No. [3]: 2.8 | Nuptial Chambers Without Egg Galleries No. [3]: 9.8 | Mean # of Ips caught/trap [4]: 4.6 | Nuptial Chambers Total [4]: 21.0 | Nuptial Chambers With Egg Galleries % of Total [4]: 8.6% | Nuptial Chambers With Egg Galleries No. [4]: 1.8 | Nuptial Chambers Without Egg Galleries No. [4]: 19.2 | Length of Egg Galleries Total [5]: 19.4 | Length of Egg Galleries With Brood [5]: 0.0 cm | Length of Egg Galleries With Brood % of Total [5]: 0.0% | Length of Egg Galleries Without Brood [5]: 19.4 cm | Length of Egg Galleries Without Brood % of Total [5]: 100.0% | Number of Egg Galleries Total [5]: 5.6 | Number of Egg Galleries With Brood % of Total [5]: 0.0% | Number of Egg Galleries With Brood No. [5]: 0.0 | Number of Egg Galleries Without Brood % of Total [5]: 100.0% | Number of Egg Galleries Without Brood No. [5]: 5.6 | Length of Egg Galleries Total [6]: 9.2 | Length of Egg Galleries With Brood [6]: 1.0 cm | Length of Egg Galleries With Brood % of Total [6]: 10.9% | Length of Egg Galleries Without Brood [6]: 8.2 cm | Length of Egg Galleries Without Brood % of Total [6]: 89.1% | Number of Egg Galleries Total [6]: 3.0 | Number of Egg Galleries With Brood % of Total [6]: 6.7% | Number of Egg Galleries With Brood No. [6]: 0.2 | Number of Egg Galleries Without Brood % of Total [6]: 93.3% | Number of Egg Galleries Without Brood No. [6]: 2.8 | Length of Egg Galleries Total [7]: 5.8 | Length of Egg Galleries With Brood [7]: 3.4 cm | Length of Egg Galleries With Brood % of Total [7]: 58.6% | Length of Egg Galleries Without Brood [7]: 2.4 cm | Length of Egg Galleries Without Brood % of Total [7]: 41.4% | Mean # of Ips caught/trap [7]: 1.2 | Number of Egg Galleries Total [7]: 1.0 | Number of Egg Galleries With Brood % of Total [7]: 40.0% | Number of Egg Galleries With Brood No. [7]: 0.4 | Number of Egg Galleries Without Brood % of Total [7]: 60.0% | Number of Egg Galleries Without Brood No. [7]: 0.6 | Nuptial Chambers Total [7]: 8.0 | Nuptial Chambers With Egg Galleries % of Total [7]: 7.5% | Nuptial Chambers With Egg Galleries No. [7]: 0.6 | Nuptial Chambers Without Egg Galleries % of Total [7]: 92.5% | Nuptial Chambers Without Egg Galleries No. [7]: 7.4 | Length of Egg Galleries Total [8]: 15.2 | Length of Egg Galleries With Brood [8]: 13.0 cm | Length of Egg Galleries With Brood % of Total [8]: 85.5% | Length of Egg Galleries Without Brood [8]: 2.2 cm | Length of Egg Galleries Without Brood % of Total [8]: 14.5% | Mean # of Ips caught/trap [8]: 0.8 | Number of Egg Galleries Total [8]: 2.0 | Number of Egg Galleries With Brood % of Total [8]: 60.0% | Number of Egg Galleries With Brood No. [8]: 1.2 | Number of Egg Galleries Without Brood % of Total [8]: 40.0% | Number of Egg Galleries Without Brood No. [8]: 0.8 | Nuptial Chambers Total [8]: 6.6 | Nuptial Chambers With Egg Galleries % of Total [8]: 18.2% | Nuptial Chambers With Egg Galleries No. [8]: 1.2 | Nuptial Chambers Without Egg Galleries % of Total [8]: 81.8% | Nuptial Chambers Without Egg Galleries No. [8]: 5.4

From patent publication US20080039515A1, “Arylpyrazoles And Methods Of Using Same For Control Of Insect Pests That Bore Into Trees” (The Texas A&M University System, priority 2004, published 2008)
